Data reported in patent US4343949A, “Novel 2-substituted-3,4-epoxycyclopentan-1-ones, 2-substituted-3,4-epoxycyclopentan-1-ols, and various 2-substituted-cyclopentenones” (American Cyanamid Company, priority 1979, dated 1982).

Legend:
[1] = system: ulcerogenic properties of indomethacin; assay: protection against the ulcerogenic properties of indomethacin (stomach ulcer score); format: in vivo, Rats; settings: indomethacin 20 mg./kg. s.c., 2.5 or lower = active
Protocol: The compounds of this invention provide protection against the ulcerogenic properties of indomethacin. This assay was carried out in the following manner.
Rats were starved for 48 hours (water was given ad libitum). Indomethacin (20 mg./kg. of body weight) was administered by the subutaneous route and one-half the dose of the test compound was administered by gavage at the same time. After three hours, the second half of the test compound was administered also by Gavage. Five hours after the administration of indomethacin the animals were decapitated and the stomachs removed. The stomachs were washed with distilled water, blotted on gauze, cut along the larger curvature, and the contents rinsed with distilled water. The stomachs were spread out, pinned on a cork and visualized under magnifying glass for ulcers. The criteria for scoring of ulcers was as previously reported. [Abdel-Galil et al. Brit. J. Pharmac. Chemotherapy 33:1-14 (1968)]. […]
______________________________________
Petechial hemorrhage or pin point ulcer
Many ulcers, a few large
Many ulcers, mainly large
Control animals treated with indomethacin but not test compound consistently give scores of about 3.0-3.5. Control animals treated with neither indomethacin nor test compound give scores of about 0.5-0.8. Compounds producing a score of 2.5 or lower are considered to be active.

[2] = system: bronchospasms elicited by histamine; assay: bronchodilator activity (Konzett assay) against histamine bronchospasm; format: in vivo, guinea pigs; settings: Cavia porcellus; spasmogenic agent histamine; three logarithmic cumulative intravenous doses
Protocol: (§1) Bronchodilator activity was determined in guinea pigs against bronchospasms elicited by intravenous injections of 5-hydroxytryptamine, histamine or acetylcholine by the Konzett procedure. (See J. Lulling, P. Lievens, F. El Sayed and J. Prignot, Arzeimittel-Porschung, 18 995 (1968).]
(§2) In the Table which follows bronchodilator activity for representative compounds of this invention against one or more of the three spasmogenic agents is expressed as an ED50 determined from the results obtained with three logarithemic cumulative intravenous doses.

[3] = system: bronchospasms elicited by 5-hydroxytryptamine; assay: bronchodilator activity (Konzett assay) against 5-hydroxytryptamine bronchospasm; format: in vivo, guinea pigs; settings: Cavia porcellus; spasmogenic agent 5-hydroxytryptamine; three logarithmic cumulative intravenous doses
Protocol: as §1, §2

[4] = system: bronchospasms elicited by acetylcholine; assay: bronchodilator activity (Konzett assay) against acetylcholine bronchospasm; format: in vivo, guinea pigs; settings: Cavia porcellus; spasmogenic agent acetylcholine (head prints choline); three logarithmic cumulative intravenous doses
Protocol: as §1, §2

[5] = total oral dose 25 mg./kg. of body weight, control score 3.2

`CCCCCC(O)/C=C/C1CCC(=O)C1CCCCSCC(=O)O` (stereo not drawn) [9-oxo-3-thia-15-epi-hydroxy-13-trans-prostenoic acid] was tested. Which “Score, Treated (stomach ulcer score)” value [1, 5] did it give?
Its value is 2.3.

`CCCCCC(O)/C=C/C1CCC(=O)C1CCCCSCC(=O)O` (stereo not drawn) [9-oxo-3-thia-15-hydroxy-13-trans-prostenoic acid] was tested. Which “Score, Treated (stomach ulcer score)” value [1, 5] did it give?
The value was 1.8.

How did the “Score, Treated (stomach ulcer score)” value ([1]; total oral dose 12.5 mg./kg. of body weight, control score 3.0) turn out when `CCCCCC(O)/C=C/C1CCC(=O)C1(C)CCCCCCC(=O)O` (stereo not drawn) [9-oxo-8β-methyl-15-hydroxy-13-trans-prostenoic acid] was run?
The value was 2.0.

With `CCCCCC(O)/C=C/C1CCC(=O)C1CCCCCC(CC)C(=O)O` (stereo not drawn) [9-oxo-15-hydroxy-2-ethyl-13-trans-prostenoic acid] as the molecule, how does the ED50 [2] read?
Its ED50 is 0.145 µg/kg.

What about the ED50 [3] of the same molecule?
Its ED50 is 0.329 µg/kg.

What about the ED50 [4] of the same molecule?
Its ED50 is 0.533 µg/kg.

With `CCCCCC(O)/C=C\C1CCC(=O)C1CCCCCCC(=O)O` (stereo not drawn) [9-oxo-15-hydroxy-13-cis-prostenoic acid] as the molecule, how does the ED50 [3] read?
Its ED50 is 0.106 µg/kg.

What about the ED50 [4] of the same molecule?
Its ED50 is 0.32 µg/kg.
